Assay results taken from paper PMC12186257, “Serendipitous and Systematic Chemoproteomic Discovery of MBLAC2, HINT1, and NME1‑4 Inhibitors from Histone Deacetylase-Targeting Pharmacophores” (ACS Chemical Biology, 2025).

Biological target: recombinant HINT1 (hHint1) (Homo sapiens, UniProt P49773)
Assay: HINT1 enzyme activity assay (TrpA hydrolysis, fluorescence)
Format: biochemical
Details: hHint1 0.002 µM, TrpA 0.5 µM, 25 °C
Source text: While the biologically relevant substrates of HINT1 have not been clearly elucidated, the protein has been implicated in opioid receptor signaling, − regulation of the melanoma-associated transcription factor MITF, , and DNA damage repair. These functions position HINT1 as a potential pharmacological target for treating conditions such as opioid resistance or melanoma. The only reported HINT1-targeting pharmacophores are nucleoside-based nonhydrolyzable substrate analogs, such as the carbamate TrpGC (Figure a). , We evaluated the inhibitory potential of KV-24 and KV-30 in enzyme activity assays using recombinant HINT1. […] This discrepancy could be attributed to reduced affinity for the recombinant enzyme due to the absence of post-translational modifications (PTMs), cofactors, or interaction partners that enhance drug binding. Alternatively, it might result from substrate dilution in the lysate, whereas high substrate concentrations in the enzyme activity assay require the inhibitor to compete more effectively.
Mouse brain proteomics – LC-MS/MS. Proteome analysis of brain mouse tissue samples was performed on a micro-flow LC timsTOF HT setup described in detail in REF14. Liquid chromatography in micro-flow mode was performed on a Vanquish Neo UHPLC System (Thermo Fisher Scientific) at a flow rate of 50 µL/min. […] 10 µg of peptide mix was injected and analyzed using a 58 min gradient starting at 1% B up to 45% B (1 h method). […]
Mouse proteomics data analysis. The data files were analyzed with DIA-NN 1.8.1. […] The resulting protein group tables were further analyzed by Perseus 1.6.2.2. […]
CME of transferrin and confocal microscopy analyses.For transferrin uptake experiments HeLa cells were seeded on Matrigel-coated coverslips, and incubated with 0.1 % DMSO, or with 100 µM dynasore, 20 µM KV50, 2 µM KV65, or 2 µM KV79 in media containing 10% FCS at 37°C for 20 h. […] All inhibitor treatments were performed in duplicate, to enable quantification of surface levels of transferrin receptors, and to assess the capability of transferrin receptor endocytosis. […]

recombinant HINT1 (hHint1), sequence (P49773 whole entry): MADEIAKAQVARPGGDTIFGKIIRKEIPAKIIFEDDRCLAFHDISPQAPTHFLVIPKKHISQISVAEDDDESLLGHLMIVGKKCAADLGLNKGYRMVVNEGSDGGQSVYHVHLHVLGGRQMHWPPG

IC50 [µM]	Structure (SMILES)
12.3	O=C(NO)c1ccc(-c2nc3ccccc3n3cccc23)cc1 [KV-24]
12.6	O=C(NO)c1ccc(-c2nc3ccccc3c3ccccc23)cc1 [KV-30]
